Experiments:
α-glucosidase = α-glucosidase (Saccharomyces cerevisiae, UniProt P53341); assay: In vitro α-glucosidase inhibition assay (p-NPG hydrolysis, 405 nm); assay type: biochemical; set-up: inhibition: dose or concentration left out as unconfirmed; settings: mean ± standard error of the mean, triplicate; for inhibition: read-out: The Degree of Inhibition of α-Glucosidase Activity
Description: Antidiabetic activity was assessed by the degree of inhibition of α-glucosidase activity by the test substances.
The study of the degree of α-glucosidase activity inhibition by the test compounds was performed using a standard method with minor modifications.
Study of the degree of inhibition of α-glucosidase activity by test compounds [25].
The principle of the method is as follows: the α-glucosidase enzyme hydrolyzes 4-Nitrophenyl α-D-glucopyranoside to form a colorimetric product (405 nm), the concentration of which is proportional to the α-glucosidase activity. […] The resulting mixture was incubated for 15 min at +37 °C, then 200 μL of a solution of 4-Nitrophenyl α-D-glucopyranoside (p-Nitrophenyl α-D-glucopyranoside, P-NPG) (5 mM) was added, and then the mixture was incubated at +37 °C for 20 min. Then, the reaction was stopped by adding 500 μL of sodium carbonate (0.1 M). A solution of α-glucosidase (1 U/mL) was used as a blank. We used 200 μL of DMSO in triplicate as a negative control. […] At the same time, a negative control was set without addition of test compounds. All samples were studied in triplicate. Inhibitory activity was expressed as a percentage (%) according to the degree of inhibition of α-glucosidase in comparison with the negative control. It was calculated by the following formula:
Inhibitory activity (%) = (1 − As/Ac)∗100%, where As is the optical density of the test compound, and Ac is the optical density of control.
The IC50 was determined from the graph of enzyme activity changes depending on the sample concentration.
Statistical processing of the results was carried out using the “Excel 365 v2401” program. […] The α-amylase and α-glucosidase enzymes determine the extent to which glucose enters the bloodstream from the gastrointestinal tract. Inhibition of these enzymes can be useful for lowering postprandial glucose levels.

Chain of α-glucosidase (P53341 whole entry): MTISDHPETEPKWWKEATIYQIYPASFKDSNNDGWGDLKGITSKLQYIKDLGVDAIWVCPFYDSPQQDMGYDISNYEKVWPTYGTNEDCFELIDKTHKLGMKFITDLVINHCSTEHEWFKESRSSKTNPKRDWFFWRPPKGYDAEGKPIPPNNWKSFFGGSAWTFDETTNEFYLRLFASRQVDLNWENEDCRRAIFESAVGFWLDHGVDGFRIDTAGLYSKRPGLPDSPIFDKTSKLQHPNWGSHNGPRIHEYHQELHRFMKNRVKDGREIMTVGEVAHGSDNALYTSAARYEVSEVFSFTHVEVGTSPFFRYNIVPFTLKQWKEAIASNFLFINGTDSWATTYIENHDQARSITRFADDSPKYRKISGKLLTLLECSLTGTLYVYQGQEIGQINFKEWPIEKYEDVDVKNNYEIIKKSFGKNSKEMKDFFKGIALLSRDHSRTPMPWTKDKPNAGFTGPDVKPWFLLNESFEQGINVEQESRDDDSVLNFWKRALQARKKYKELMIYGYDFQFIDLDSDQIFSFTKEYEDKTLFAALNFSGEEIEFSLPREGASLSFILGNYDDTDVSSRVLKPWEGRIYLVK

| Compound | inhibition (α-glucosidase) [%] | melting point [°C] | other results |
| --- | --- | --- | --- |
| Cc1cc(C)c(NC(=O)c2nnc(CCC(=O)O)s2)c(=O)[nH]1 [5′a] | 36.3 ± 4.8 |  |  |
| Cc1cc(-c2ccccc2)c(NC(=O)c2nnc(CCC(=O)O)s2)c(=O)[nH]1 [5′b] | 72.4 ± 2.3 |  |  |
| Cc1cc(-c2cccs2)c(NC(=O)c2nnc(CCC(=O)O)s2)c(=O)[nH]1 [5′c] | 38.3 ± 2.4 |  |  |
| Cc1cc(C)c(NC(=O)c2nnc(CCCC(=O)O)s2)c(=O)[nH]1 [7a, 4-(5-((4,6-Dimethyl-2-oxo-1,2-dihydropyridin-3-yl)carbamoyl)-1,3,4-thiadiazol-2-yl)butanoic acid] |  | 248 to 250 |  |
| Cc1cc(-c2ccccc2)c(NC(=O)c2nnc(CCCC(=O)O)s2)c(=O)[nH]1 [7b, 4-(5-((6-Methyl-2-oxo-4-phenyl-1,2-dihydropyridin-3-yl)carbamoyl)-1,3,4-thiadiazol-2-yl)butanoic acid] |  | 243 to 246 |  |
| Cc1cc(-c2cccs2)c(NC(=O)c2nnc(CCCC(=O)O)s2)c(=O)[nH]1 [7c, 4-(5-((6-Methyl-2-oxo-4-(thiophen-2-yl)-1,2-dihydropyridin-3-yl)carbamoyl)-1,3,4-thiadiazol-2-yl)butanoic acid] |  | 197 to 200 |  |
| Cc1cc(C)c(NC(=O)c2nnc(CCCC(=O)O)s2)c(=O)[nH]1 [7′a] | 34.8 ± 4.2 |  |  |
| Cc1cc(-c2ccccc2)c(NC(=O)c2nnc(CCCC(=O)O)s2)c(=O)[nH]1 [7′b] | 95 ± 0.2 |  |  |
| Cc1cc(-c2cccs2)c(NC(=O)c2nnc(CCCC(=O)O)s2)c(=O)[nH]1 [7′c] | 93.9 ± 0.4 |  |  |
| Cc1cc(C)c(NC(=O)c2nnc(/C=C/C(=O)O)s2)c(=O)[nH]1 [8a, (E)-3-(5-((4,6-Dimethyl-2-oxo-1,2-dihydropyridin-3-yl)carbamoyl)-1,3,4-thiadiazol-2-yl)acrylic acid] |  | 261 to 263 |  |
| Cc1cc(-c2ccccc2)c(NC(=O)c2nnc(/C=C/C(=O)O)s2)c(=O)[nH]1 [8b, (E)-3-(5-((6-Methyl-2-oxo-4-phenyl-1,2-dihydropyridin-3-yl)carbamoyl)-1,3,4-thiadiazol-2-yl)acrylic acid] |  | 199 to 202 |  |
| Cc1cc(-c2cccs2)c(NC(=O)c2nnc(/C=C/C(=O)O)s2)c(=O)[nH]1 [8c, (E)-3-(5-((6-Methyl-2-oxo-4-(thiophen-2-yl)-1,2-dihydropyridin-3-yl)carbamoyl)-1,3,4-thiadiazol-2-yl)acrylic acid] |  | 247 to 250 |  |
| Cc1cc(C)c(NC(=O)c2nnc(/C=C/C(=O)O)s2)c(=O)[nH]1 [8′a] | 14 ± 3 |  |  |
| Cc1cc(-c2ccccc2)c(NC(=O)c2nnc(/C=C/C(=O)O)s2)c(=O)[nH]1 [8′b] | 68.2 ± 4.7 |  |  |
| Cc1cc(-c2cccs2)c(NC(=O)c2nnc(/C=C/C(=O)O)s2)c(=O)[nH]1 [8′c] | 8 ± 3 |  |  |
| Cc1cc(C)c(NC(=O)c2nnc(-c3ccccc3C(=O)O)s2)c(=O)[nH]1 [9a, 2-(5-((4,6-Dimethyl-2-oxo-1,2-dihydropyridin-3-yl)carbamoyl)-1,3,4-thiadiazol-2-yl)benzoic acid] |  | 315 to 318 |  |
| Cc1cc(-c2ccccc2)c(NC(=O)c2nnc(-c3ccccc3C(=O)O)s2)c(=O)[nH]1 [9b, 2-(5-((6-Methyl-2-oxo-4-phenyl-1,2-dihydropyridin-3-yl)carbamoyl)-1,3,4-thiadiazol-2-yl)benzoic acid] |  | 176 to 180 |  |
| Cc1cc(-c2cccs2)c(NC(=O)c2nnc(-c3ccccc3C(=O)O)s2)c(=O)[nH]1 [9c, 2-(5-((6-Methyl-2-oxo-4-(thiophen-2-yl)-1,2-dihydropyridin-3-yl)carbamoyl)-1,3,4-thiadiazol-2-yl)benzoic acid] |  | 275 to 277 |  |
| Cc1cc(C)c(NC(=O)c2nnc(-c3ccccc3C(=O)O)s2)c(=O)[nH]1 [9′a] | 33.6 ± 6.1 |  |  |
| Cc1cc(-c2ccccc2)c(NC(=O)c2nnc(-c3ccccc3C(=O)O)s2)c(=O)[nH]1 [9′b] |  |  | inhibition at 15000 µM (α-glucosidase; read-out: The Degree of Inhibition of α-Glucosidase Activity, tested compounds at a concentration of 15 mM (Table 1 title)): 95% |
| Cc1cc(-c2cccs2)c(NC(=O)c2nnc(-c3ccccc3C(=O)O)s2)c(=O)[nH]1 [9′c] | 21 ± 2.2 |  |  |
| C[C@H]1O[C@H](O[C@H]2[C@H](O)[C@@H](O)[C@@H](O[C@H]3[C@H](O)[C@@H](O)C(O)O[C@@H]3CO)O[C@@H]2CO)[C@H](O)[C@@H](O)[C@@H]1N[C@H]1C=C(CO)[C@@H](O)[C@H](O)[C@H]1O (stereo partly shown) [Acarbose, reference compound] |  |  | The Degree of Inhibition of α-Glucosidase Activity (α-glucosidase; tested compounds at a concentration of 15 mM (Table 1 title)): 49.5 ± 1.8% |
